The source of these data is patent publication EP0152542A1, “Pyrrol-3-carboxylic acids having central analgesic activity” (POLI INDUSTRIA CHIMICA S.p.A., priority 1983, dated 1985).

Like-named read-outs stand apart in the source and are kept apart here.

In series [1] the test system is Male albino mice. In words: Hot plate test (thermostatized plate at 55°C, reaction time to painful stimulus). The format is in vivo. The note with it: Mus musculus. (In general: Thermal pain tests record how soon the animal reacts.)
Series [2] is described as follows: Acute toxicity per os in the rat (LD50 at the 14th observation day). Conditions: in vivo, po. How it is done: (§1) The analgesic activity of the compounds of for mula I, administered by the oral route has been determined by means of the following tests: • - Phenylquinone test in mice (Hendershot and Forsa ith - J. Pharmacol. Exp. Ther. 123, 237 (1959)) • - Hot plate test - Male albino mice, treated with increasing doses of the compound under test, are placed on a thermostatized plate at 55°C. The time necessary for the mouse to react to the painful stimulus is then measured. An effective dose 50 (ED50) is defined as the dose inducing a 50% increase of the reaction time, with respect to control animals. • - The acute toxicity per os has been studied in the mouse and in the rat and expressed as LD50 at the 14th observation day.

Series [3] can be described thus: Acute toxicity per os in the mouse (LD50 at the 14th observation day). Conditions: in vivo, po. How it is done:
as §1

In series [4] the test system is mice. The series can be described thus: Phenylquinone test in mice (analgesic activity). The format is in vivo. The note with it: Mus musculus. How it is done:
as §1

Series [5] has as its system cyclooxygenase and the prostaglandinsynthetase. Conditions: known compound, background statement; cited from earlier work.
The mark [6] stands for this setting: sc, S.C., ED50 = dose inducing a 50% increase of the reaction time versus controls, plate at 55°C, read-out: HOT PLATE ED50 S.C. MICE.
Setting [7] is: mice, oral, read-out: PHENYLQUINONE ED50 OS.

As a reminder, the ED50 is the dose at which the effect has come halfway, by size or by number of responders. In general, LD50 refers to the dose expected to kill half of the subjects tested. Take `Cc1c(C(=O)O)c(C)n(C)c1C(=O)c1ccc(Cl)c(Cl)c1` [R=CH3, R1=Cl, R2=Cl, R3=H]: the figures for the ED50 in series [1] (setting [6]) and in series [4] (setting [7]) were 4.7 mg/kg and 7.5 mg/kg, respectively. The LD50 at 336 h was > 1600 mg/kg in series [2] and 800 mg/kg in series [3] (read-out: LD50 MICE OS).
With `COc1ccc2c3c1O[C@H]1[C@@H](O)C=C[C@H]4[C@@H](C2)N(C)CC[C@@]341.Cl` [codeine hydrochloride, reference compound], the ED50 stood at 25 mg/kg in series [1] (comparison compound, route not given, read-out: ED50 hot plate) and 5.6 mg/kg in series [4] (po, read-out: ED50 phenylquinone). Besides, in series [3] (comparison compound, per os, read-out: LD50 mouse per os), the LD50 at 336 h amounted to 300 mg/kg.
As for `Cc1c(C(=O)O)c(C)n(C)c1C(=O)c1ccc(Cl)cc1Cl` [R=CH3, R1=Cl, R2=H, R3=Cl, 1,2,4-Trimethyl-5-(2,4-dichlorobenzoyl)-pyrrol-3-carboxylic acid], the ED50 in series [1] (setting [6]) came out at 5.7 mg/kg; in series [4] (setting [7]), 10.9 mg/kg. Further, the LD50 at 336 h in series [2] (per os, 14th observation day) worked out at 1700 mg/kg; in series [3] (mice, per os, 14th observation day, read-out: LD50 MICE OS), 1400 mg/kg.
In the case of `CCCCn1c(C)c(C(=O)O)c(C)c1C(=O)c1ccc(Cl)cc1` [R=C4H9, R1=Cl, R2=H, R3=H], the ED50 in series [1] (setting [6]) was 2.9 mg/kg; in series [4] (setting [7]), 6.3 mg/kg. The LD50 at 336 h in series [2] is > 1600 mg/kg; in series [3] (read-out: LD50 MICE OS), 1300 mg/kg.
Consider `Cc1c(C(=O)O)c(C)n(Cc2ccccc2Cl)c1C(=O)c1ccc(Cl)cc1`, for which the median effective dose (ED50) in series [1] (setting [6]) was found to be 5.5 mg/kg; in series [4] (setting [7]), 10.8 mg/kg. The LD50 at 336 h in series [2] is > 1600 mg/kg; in series [3] (read-out: LD50 MICE OS), 1200 mg/kg.
In the case of `Cc1cc(CC(=O)O)n(C)c1C(=O)c1ccc(Cl)cc1` [Zomepirac, 5-(p-chlorobenzoyl)-1,4-dimethyl-pyrrol-2-acetic acid], in series [5], the “inhibits the cyclooxygenase and the prostaglandinesynthetase” value is on record as “inhibits”.
`Cc1c(C(=O)O)c(C)n(C)c1C(=O)c1ccc(Cl)cc1` [R=CH3, R1=Cl, R2=H, R3=H, reference compound]: the 50% effective dose (ED50) stood at 2.3 mg/kg in series [1] (setting [6]) and 4.6 mg/kg in series [4] (setting [7]). Besides, the LD50 at 336 h in series [2] was > 1600 mg/kg; in series [3] (read-out: LD50 MICE OS), 800 mg/kg.
In the case of `COc1ccc(C(=O)c2c(C)c(C(=O)O)c(C)n2C)cc1` [R=CH3, R1=OCH3, R2=H, R3=H], the ED50 in series [1] (setting [6]) was found to be 7.6 mg/kg; in series [4] (setting [7]), 8.4 mg/kg. The LD50 at 336 h in series [2] and in series [3] (read-out: LD50 MICE OS) was > 1600 mg/kg throughout.
For the molecule `Cc1ccc(C(=O)c2c(C)c(C(=O)O)c(C)n2C)cc1` [R=CH3, R1=CH3, R2=H, R3=H], the values for the ED50 in series [1] (setting [6]) and in series [4] (setting [7]) were > 10 mg/kg and 10 mg/kg, respectively. For the same molecule, the values for the LD50 at 336 h in series [2] and in series [3] (read-out: LD50 MICE OS) were > 1600 mg/kg and 1400 mg/kg, respectively.
Consider `Cc1c(C(=O)O)c(C)n(Cc2ccccc2)c1C(=O)c1ccc(Cl)cc1`, for which the figures for the ED50 in series [1] (setting [6]) and in series [4] (setting [7]) were 4.8 mg/kg and 7.6 mg/kg, respectively. Further, the LD50 at 336 h in series [2] was > 1600 mg/kg; in series [3] (read-out: LD50 MICE OS), 1500 mg/kg.
